Where two headings read alike, the source gives them in different places.
How the values were obtained:
[1] = Plasma histamine assay after single intravenous injection in SD rats; assay type: in vivo
Method: (§1) 12 SD rats were divided into 2 groups of 6 (half are male and half female). […] The body weights were measured once before administration. Administration was performed by single intravenous injection for 20 min per animal. PK measurement was performed once before administration and 5 min, 30 min, 1 h, 4 h, 8 h, 24 h, 48 h, 72 h and 96 h after administration. A histamine assay was performed once before administration and 30 min, 4 h, 8 h and 24 h after administration.

[2] = tested on: Candida albicans (azole drug-resistant strain) R358; assay: MIC assay (CLSI M27-A3), Candida albicans azole drug-resistant strain R358; assay type: cell-based; details: second batch
Method: (§2) After a test compound was serially diluted, an MIC (minimum inhibitory concentration) assay was performed on the standard Candida strain and an MEC (minimum effective concentration) assay on the standard Aspergillus strain. The MIC assay was performed according to the guidelines of the Clinical and Laboratory Standards Institute (CLSI M27-A3) and the MEC assay according to the guidelines of the Clinical and Laboratory Standards Institute (CLSI M38-A2).
(§3) The frozen strain was passaged at least twice, and a single colony was picked and resuspended in normal saline or sterile water in a tube. The suspension was vortexed and adjusted to 0.5 McF (1×10^6 to 5×10^6 CFU/mL) using a spectrophotometer at wavelength 530 nm. The suspension was 50-fold diluted with normal saline and then 20-fold diluted with 1×RPMI 1640 broth (1×10^3 to 5×10^3 CFU/mL). 10 μL of the suspension was applied to an SDA plate for colony counting, with a range from about 10 to 50 single colonies.
(§4) At this time, the bacterium concentration in each well should be 0.5×10^3 to 2.5×10^3 CFU/mL.
(§5) For echinocandin drugs, Aspergillus was incubated at 28° C. for 21-26 h, and then the MEC results were read.
(§6) Yeast-type fungi: A disposable sealing film was applied to the 96-well plate, and the mixture was well mixed by shaking. Observation was performed through a plate reader with the naked eye. Comparisons were made to the growth control, and the minimum compound concentration corresponding to ≥50% growth inhibition was defined as MIC. Pictures were taken and saved using an automatic plate reader.

[3] = tested on: Candida tropicalis ATCC 750; assay: MIC assay (CLSI M27-A3), Candida tropicalis ATCC 750; assay type: cell-based; details: first batch, 24 h, 35° C.
Method: as §2, §3, §4, §5, §6

[4] = tested on: Candida albicans (azole drug-resistant strain) R357; assay: MIC assay (CLSI M27-A3), Candida albicans azole drug-resistant strain R357; assay type: cell-based; details: second batch
Method: as §2, §3, §4, §5, §6

[5] = tested on: Candida parapsilosis ATCC 22019; assay: MIC assay (CLSI M27-A3), Candida parapsilosis ATCC 22019; assay type: cell-based; details: for MIC, Candida parapsilosis ATCC 22019: first batch, 24 h, 35° C., quality control strain
Method: as §2, §3, §4, §5, §6

[6] = tested on: Candida krusei ATCC 6258; assay: MIC assay (CLSI M27-A3), Candida krusei ATCC 6258; assay type: cell-based; details: for MIC, Candida krusei ATCC 6258: first batch, 24 h, 35° C., quality control strain
Method: as §2, §3, §4, §5, §6

[7] = tested on: Candida albicans ATCC 90029; assay: MIC assay (CLSI M27-A3), Candida albicans ATCC 90029; assay type: cell-based; details: first batch, 24 h, 35° C., ≥50% growth inhibition
Method: as §2, §3, §4, §5, §6

[8] = tested on: Candida albicans ATCC 90028; assay: MIC assay (CLSI M27-A3), Candida albicans ATCC 90028; assay type: cell-based; details: second batch; for MIC: Candida albicans, ATCC90028
Method: as §2, §3
At this time, the bacterium concentration in each well should be 0.5×10^3 to 2.5×10^3 CFU/mL. […]
as §6

[9] = tested on: Candida glabrata ATCC 36583; assay: MIC assay (CLSI M27-A3), Candida glabrata ATCC 36583; assay type: cell-based; details: second batch
Method: as §2, §3, §4, §5, §6

[10] = tested on: Meyerozyma guilliermondii ATCC 6260; assay: MIC assay (CLSI M27-A3), Meyerozyma guilliermondii ATCC 6260; assay type: cell-based; details: first batch, 24 h, 35° C.
Method: as §2, §3, §4, §5, §6

[11] = tested on: Candida albicans ATCC 44858; assay: MIC assay (CLSI M27-A3), Candida albicans ATCC 44858; assay type: cell-based; details: second batch
Method: as §2, §3, §4, §5, §6

[12] = tested on: Candida tropicalis (amphotericin-resistant strain) ATCC 200956; assay: microbe, parasite or virus in culture; assay type: cell-based
Method: as §2, §3, §4, §5, §6

[13] = Pharmacokinetic study after single intravenous injection in SD rats; assay type: in vivo; details: 10 mg/kg single intravenous injection
Method: as §1

[14] = tested on: Candida glabrata ATCC 15126; assay: MIC assay (CLSI M27-A3), Candida glabrata ATCC 15126; assay type: cell-based; details: first batch; 24 h, 35° C.; ≥50% growth inhibition
Method: as §2, §3, §4, §5, §6

[15] = tested on: Aspergillus flavus ATCC 28539; assay: MEC assay (CLSI M38-A2), Aspergillus flavus ATCC 28539; assay type: cell-based; details: first batch; 28° C., 21-26 h
Method: The MIC assay was performed according to the guidelines of the Clinical and Laboratory Standards Institute (CLSI M27-A3) and the MEC assay according to the guidelines of the Clinical and Laboratory Standards Institute (CLSI M38-A2).
Colonies on the plate were covered with about 1 mL of 0.85% normal saline or sterile water (polysorbate 20 was added at a final concentration of 0.1%-0.01%). […] The homogeneous upper layer of the suspension was transferred to a new sterile tube, which was then sealed and vortexed for 15 s (be careful as the suspension may produce an aerosol when the cover is removed). The concentration of the suspension was adjusted until an OD value of 0.09-0.13 was achieved using a spectrophotometer at 530 nm. […] 100 μL of sample was added to each well of the 96-well plate within 2 h after dilution (the final spore concentration in the susceptibility testing plate was at 0.4×10^4 to 5×10^4 CFU/mL).
Aspergillus: For echinocandin drugs, comparisons were made to the growth control under a plate reader, and the minimum drug concentration that could cause the hyphae to form small, round, compact hyphal particles was defined as MEC. For accurate determination of MEC values, the plate must not be vortexed before reading.

[16] = General state observation after single intravenous injection in SD rats; assay type: in vivo; details: 10 mg/kg single intravenous injection
Method: as §1

CCCCCOc1ccc(-c2ccc(-c3ccc(C(=O)N[C@H]4C[C@@H](O)[C@@H](OC[C@H]5CCC[N+]5(C)C)NC(=O)[C@@H]5[C@@H](O)[C@@H](C)CN5C(=O)[C@H]([C@@H](C)O)NC(=O)[C@H]([C@H](O)[C@@H](O)c5ccc(O)cc5)NC(=O)[C@@H]5C[C@@H](O)CN5C(=O)[C@H]([C@@H](C)O)NC4=O)cc3)cc2)cc1 [Example 13]
ability to induce increases in the histamine level in rats ([1]; same dose (10 mg/kg), single intravenous injection, versus rezafungin acetate): significantly lower than that of rezafungin acetate | MIC ([2]; Candida albicans, read-out: MIC, Candida albicans (azole drug-resistant strain) R358): 0.25 µg/mL | MIC ([3]; Candida tropicalis, ATCC750, read-out: MIC, Candida tropicalis ATCC 750): 0.016 µg/mL | MIC ([4]; Candida albicans, read-out: MIC, Candida albicans (azole drug-resistant strain) R357): 0.5 µg/mL | MIC ([5]; Lodderomyces parapsilosis, ATCC22019, 24 h, read-out: MIC, Candida parapsilosis ATCC 22019): 1 µg/mL | MIC ([6]; Pichia kudriavzevii, ATCC6258, 24 h, read-out: MIC, Candida krusei ATCC 6258): 0.047 µg/mL | MIC ([7]; Candida albicans, ATCC90029, read-out: MIC, Candida albicans ATCC 90029): 0.031 µg/mL | MIC ([8]; 24 h, 35° C., read-out: MIC, Candida albicans ATCC 90028): 0.25 µg/mL | MIC ([8]; + 50% human serum, read-out: MIC, Candida albicans + 50% human serum ATCC 90028): 0.25 µg/mL | MIC ([9]; Nakaseomyces glabratus, ATCC36583, read-out: MIC, Candida glabrata ATCC 36583): 0.5 µg/mL | MIC ([10]; Meyerozyma guilliermondii, ATCC6260, read-out: MIC, Meyerozyma guilliermondii ATCC 6260): 1 µg/mL | MIC ([11]; Candida albicans, ATCC44858, read-out: MIC, Candida albicans ATCC 44858): 0.25 µg/mL | MIC ([12]; Candida tropicalis, ATCC200956, read-out: MIC, Candida tropicalis (amphotericin-resistant strain) ATCC 200956): 0.25 µg/mL | MRTIV ([13]; female SD rats): 34.6 h | MRTIV ([13]; male SD rats): 37.1 h

Caspofungin acetate [reference compound]
MIC, Candida tropicalis ATCC 750 [3]: 0.016 µg/mL | MIC, Candida glabrata ATCC 15126 [14]: 0.25 µg/mL | MEC, Aspergillus flavus ATCC 28539 [15]: 0.031 µg/mL | MIC, Candida parapsilosis ATCC 22019 [5]: 1 µg/mL | MIC, Candida krusei ATCC 6258 [6]: 1 µg/mL | MIC, Candida albicans ATCC 90029 [7]: 0.063 µg/mL | MIC, Meyerozyma guilliermondii ATCC 6260 [10]: 1 µg/mL

Rezafungin acetate
mean plasma histamine concentration relative to group 1 ([1]; SD rats, 10 mg/kg i.v., 30 min after administration, p=0.046): 4.5 times | time at which plasma histamine concentration peaked ([1]; SD rats, 10 mg/kg single intravenous injection): 30 min | mean histamine concentration in the plasma ([1]; SD rats, 10 mg/kg single intravenous injection, 30 min after administration): 1333.0 ng/mL | MIC, Candida albicans (azole drug-resistant strain) R358 [2]: 0.25 µg/mL | MIC, Candida tropicalis ATCC 750 [3]: 0.016 µg/mL | MIC, Candida glabrata ATCC 15126 [14]: 0.125 µg/mL | MIC, Candida albicans (azole drug-resistant strain) R357 [4]: 0.25 µg/mL | MEC, Aspergillus flavus ATCC 28539 [15]: 0.031 µg/mL | MIC, Candida parapsilosis ATCC 22019 [5]: 2 µg/mL | MIC, Candida krusei ATCC 6258 [6]: 0.25 µg/mL | MIC, Candida albicans ATCC 90029 [7]: 0.125 µg/mL | general state observation [16]: transient slight decrease in activity | MIC, Candida albicans ATCC 90028 ([8]; 24 h, 35° C.): 0.25 µg/mL | MIC, Candida albicans + 50% human serum ATCC 90028 ([8]; + 50% human serum): 0.25 µg/mL | MIC, Candida glabrata ATCC 36583 [9]: 0.25 µg/mL | MIC, Meyerozyma guilliermondii ATCC 6260 [10]: 2 µg/mL | MIC, Candida albicans ATCC 44858 [11]: 0.25 µg/mL | MIC, Candida tropicalis (amphotericin-resistant strain) ATCC 200956 ([12]; second batch): 0.25 µg/mL | AUC0-96 ([13]; female SD rats): 205.8 µg·h/mL | AUC0-inf ([13]; female SD rats): 227.2 µg·h/mL | CL ([13]; female SD rats): 0.8 mL/min/kg | Cmax ([13]; female SD rats): 8.6 µg/mL | MRTIV ([13]; female SD rats): 39.1 h | T1/2 ([13]; female SD rats): 27.9 h | VdSS ([13]; female SD rats): 1.8 L/kg | AUC0-96 ([13]; male SD rats): 190.5 µg·h/mL | AUC0-inf ([13]; male SD rats): 212.1 µg·h/mL | CL ([13]; male SD rats): 0.8 mL/min/kg | Cmax ([13]; male SD rats): 7.8 µg/mL | MRTIV ([13]; male SD rats): 38.4 h | T1/2 ([13]; male SD rats): 28.0 h | VdSS ([13]; male SD rats): 1.8 L/kg

From patent US12466856B2, “Echinocandin analogues and preparation method therefor” (SHANGHAI SENHUI MEDICINE CO., LTD., priority 2019, dated 2025)
